Experiment [1] has as its system Plasmodium falciparum. In words: In vitro antimalarial activity against Plasmodium falciparum D6 Sierra Leone. The experiment is classed as functional, organism-based.
Experiment [2] has as its system Plasmodium falciparum. In words: In vitro antimalarial activity against Plasmodium falciparum W-2 (Indochina). The experiment is classed as functional, organism-based.
The subject of experiment [3] is Mus musculus. In words: Antimalarial activity against Plasmodium berghei in mice (Mus musculus) expressed as number of cures was determined at a dose of 160 mg/kg. The experiment is classed as functional.
Experiment [4] concerns Mus musculus. In words: Antimalarial activity against Plasmodium berghei in mice (Mus musculus) expressed as number of cures was determined at a dose of 640 mg/kg. The experiment is classed as functional.
The test system of experiment [5] is Mus musculus. In words: Antimalarial activity against Plasmodium berghei in mice (Mus musculus) expressed as number of cures was determined at a dose of 40 mg/kg. The experiment is classed as functional.

Converted amounts (≈) assume the structure as drawn. “And” between values parts separate entries of the source, which are not always exact repeats. Identical values can stand only once.

Experimental findings from ChEMBL document CHEMBL1123552 (J Med Chem, 1987) are described below.

Turning to `C[C@H]1[C@@H](OCCCC(=O)O)O[C@@H]2O[C@]3(C)CC[C@H]4[C@H](C)CC[C@@H]1[C@@]24OO3`, the IC50 with Plasmodium falciparum [1] stood at 17.9 ng/mL (≈ 48.3 nM); in the experiment on Plasmodium falciparum [2], 8.04 ng/mL (≈ 21.7 nM).

As for `C[C@H]1[C@@H](OCc2ccc(C(=O)O)cc2)O[C@@H]2OC3(C)CC[C@H]4[C@H](C)CC[C@@H]1[C@@]24OO3` (single isomer, unassigned), the IC50 amounted to 1.74 ng/mL (≈ 4.16 nM) in the experiment with Plasmodium falciparum [1] and 0.92 ng/mL (≈ 2.2 nM) in the experiment on Plasmodium falciparum [2].

`COC(=O)CCCO[C@H]1O[C@@H]2OC3(C)CC[C@H]4[C@H](C)CC[C@@H]([C@H]1C)[C@@]24OO3` (single isomer, unassigned): the IC50 in the experiment with Plasmodium falciparum [1] amounted to 3.06 ng/mL (≈ 7.96 nM); in the experiment with Plasmodium falciparum [2], 0.95 ng/mL (≈ 2.47 nM).

Consider `COC(=O)c1ccc(CO[C@H]2O[C@@H]3OC4(C)CC[C@H]5[C@H](C)CC[C@@H]([C@H]2C)[C@@]35OO4)cc1` (single isomer, unassigned), for which the IC50 came out at 0.77 ng/mL (≈ 1.78 nM) in the experiment with Plasmodium falciparum [1] and 0.37 ng/mL (≈ 0.855 nM) in the experiment on Plasmodium falciparum [2].

As to `COC(=O)CCO[C@H]1O[C@@H]2OC3(C)CC[C@H]4[C@H](C)CC[C@@H]([C@H]1C)[C@@]24OO3` (single isomer, unassigned), the results for the IC50 in the experiment on Plasmodium falciparum [1] and in the experiment on Plasmodium falciparum [2] were 1.84 ng/mL (≈ 4.97 nM) and 0.64 ng/mL (≈ 1.73 nM), respectively.

In the case of `C[C@H]1[C@@H](OCC(=O)O)O[C@@H]2OC3(C)CC[C@H]4[C@H](C)CC[C@@H]1[C@@]24OO3` (single isomer, unassigned), the IC50 in the experiment on Plasmodium falciparum [1] was 53.8 ng/mL (≈ 157 nM); in the experiment on Plasmodium falciparum [2], 26.2 ng/mL (≈ 76.6 nM).

For `C[C@H]1[C@@H](OCCCC(=O)O)O[C@@H]2OC3(C)CC[C@H]4[C@H](C)CC[C@@H]1[C@@]24OO3` (single isomer, unassigned), the IC50 with Plasmodium falciparum [1] was determined as 75.5 ng/mL (≈ 204 nM); with Plasmodium falciparum [2], 10.5 ng/mL (≈ 28.4 nM).

As to `CCOC(=O)CO[C@H]1O[C@@H]2OC3(C)CC[C@H]4[C@H](C)CC[C@@H]([C@H]1C)[C@@]24OO3` (single isomer, unassigned), the IC50 came out at 0.6 ng/mL (≈ 1.62 nM) in the experiment with Plasmodium falciparum [1] and 0.26 ng/mL (≈ 0.702 nM) in the experiment with Plasmodium falciparum [2].

With `C[C@H]1[C@@H](OCCC(=O)O)O[C@@H]2OC3(C)CC[C@H]4[C@H](C)CC[C@@H]1[C@@]24OO3` (single isomer, unassigned; 7b), the IC50 worked out at 85 ng/mL (≈ 239 nM) with Plasmodium falciparum [1] and 23.3 ng/mL (≈ 65.3 nM) in the experiment with Plasmodium falciparum [2].

As to `C[C@H]1[C@@H](OCCC(=O)O)O[C@@H]2OC3(C)CC[C@H]4[C@H](C)CC[C@@H]1[C@@]24OO3` (single isomer, unassigned; 8b), the IC50 came out at 51.7 ng/mL (≈ 145 nM) with Plasmodium falciparum [1] and 35.6 ng/mL (≈ 100 nM) in the experiment with Plasmodium falciparum [2].

Take `C[C@@H]1[C@H](OCc2ccc(C(=O)O)cc2)O[C@@H]2O[C@@]3(C)CC[C@@H]4[C@@H](C)CC[C@@H]1[C@]24OO3` [ARTELINIC ACID]: the No. of cures with Mus musculus [3], with Mus musculus [4] and with Mus musculus [5] was 5 in each case. Further, the half-maximal inhibitory concentration (IC50) is 4.07 ng/mL (≈ 9.73 nM) in the experiment with Plasmodium falciparum [1] and 1.38 ng/mL (≈ 3.3 nM) in the experiment on Plasmodium falciparum [2].

As for `C[C@@H]1CC[C@H]2[C@@H](C)C(=O)O[C@@H]3O[C@@]4(C)CC[C@@H]1[C@]32OO4` [ARTEMISININ], the No. of cures is 5 in the experiment with Mus musculus [3]; 5 in the experiment with Mus musculus [4]; 3 and 2 in the experiment on Mus musculus [5] (40 mg/kg). For the same compound, the values for the IC50 with Plasmodium falciparum [1] and in the experiment with Plasmodium falciparum [2] were 2.93 ng/mL (≈ 10.4 nM) and 0.66 ng/mL (≈ 2.34 nM), respectively.

In turn, `C[C@H]1[C@H](OC(=O)CCC(=O)[O-])O[C@@H]2O[C@@]3(C)CC[C@H]4[C@H](C)CC[C@@H]1[C@@]24OO3.[Na+]` [SODIUM ARESUNATE] gave a No. of cures in the experiment with Mus musculus [4] of 5.
